Reference: patent publication US5677282A (Proscript, Inc., priority 1995, dated 1997)
Values joined by “and” are separate entries in the source; they are usually repeats but may differ in a detail not shown here. Identical values can stand only once.

How the values were obtained:
[1] = test system: bovine cartilage explants; assay: Bovine cartilage explant assay (35S-GAG release, rhIL-1α stimulated); format: cell-based; conditions: Bos taurus, rhIL-1α 5 ng/mL, 3-4 days culture, read-out: % inhibition (concentration [μM]) of cartilage degradation
Text: A tissue culture assay was used to measure the ability of the compounds of the present invention to slow the degradation of the extracellular matrix by metalloproteinases. This assay measured the amount of ^35 S-glycosaminoglycan (^35 S-GAG) released from labeled bovine cartilage explants.
Knee joints from a 1 to 3 week old calf were obtained immediately after sacrifice from the Abattoir and then transported on ice. The intact joints were washed well with tap water and soaked in 50% (v/v) Povidine iodine solution, obtained from Burre National, Inc., Baltimore, Md. All subsequent steps were performed in a laminar flow tissue culture hood using standard sterile technique. The joint was immobilized in a shank holder and the joint capsule was cut open to expose the articular cartilage. Cartilage explant plugs, approximately 15 mg wet weight, were removed from the flat articulating surfaces in the lower-most region of the knee joint using a sterile steel cork-borer and collected in a 250 mL roller bottle containing about 100 mL fresh Delbecco's minimum essential medium (DMEM), obtained from Gibco BRC, Life Technologies, Gaithersburg, Md., containing 4.5 g/l (D)-glucose and (L)-glutamine, without sodium pyruvate. The fresh media also contained enough Hepes buffer and sodium bicarbonate such that the pH was about 7.4. The media was then further supplemented just before use with 100 units Penicillin, 100 μg Streptomycin, and 50 μg (L)-ascorbic acid per mL of medium.
Once collected, the explant plugs were washed four times with 50 mL fresh DMEM. The plugs were then placed in the incubator for a minimum of 1 hour to equilibrate, before proceeding to make disks from the articulating surface of each plug. A 1 mm thick disk was sliced from individual plugs from the end that was the articulating surface of the joint. The plug was held steady in the sterile template (4 mm diameter×1.5 mm deep) using sterile forceps. A scalpel blade was used to carefully slice off the disk. Only the superficial articulating surface responded well in culture.
Individual disks obtained were transferred to a tissue culture flask containing about 100 mL fresh media. The flask containing the disks was placed in an incubator at 37° C. (with 5% CO2, 95% air) and allowed to equilibrate overnight and at least one additional day before labeling. When ready to label, the old media was replaced with 50 mL fresh media containing about 500 μCi ^35 S-Sodium Sulfate. The plugs were labeled in bulk for about 48 hours. The next morning, the "hot" media was removed and replaced with fresh "cold" media. The disks were again allowed to equilibrate overnight before being used for actual experiments.
The media in which the disks were stored was changed immediately prior to performing the assay. The disks were then returned to the incubator until the test media and the two control media had been prepared. The test media consisted of the desired concentration of a compound being tested for its ability to inhibit extracellular matrix degradation and concomitant recombinant human Interleukin rhIL-1α (5 ng/mL) in fresh DMEM solution. The control media were identical to the test media, except that the first control media lacked rhIL-1α and the second control media lacked the test compound. 250 μL of each of the test and control media were transferred to separate 96-well TC plates. Flamed forceps were used to transfer a disk from the incubator to each 96-well TC plates that had been filled with either the test media or one of the two control media.
The TC plates were then placed in the incubator and cultured for 3-4 days (initial incubation with rhIL-1α alpha takes at least 3 days to stimulate endogenous metalloproteinases). A 50 μL aliquot of media from each TC plate was saved and counted. The rest of the media was removed with a suction device.
The cartilage disks from each TC plate were also saved for counting. […]

[2] = biological target: stromelysin (Homo sapiens, UniProt P08254); assay: Assay of stromelysin inhibition activity (fluorogenic coumarin peptide substrate); format: biochemical; conditions: trypsin-activated stromelysin 2 nM, H-150 buffer pH 7.4, room temperature; read-out: Ki(app)
In short: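 Human stromelysin trypsin-activated, then used at 2 nM in HEPES/NaCl/CaCl2 buffer pH 7.4 at room temperature with coumarin peptide substrate. Initial hydrolysis rate followed by fluorescence (ex 328/em 393 nm); inhibitor added stepwise to 30-70% inhibition, Ki derived assuming simple competitive inhibition with substrate far below Km.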

stromelysin, sequence (P08254 100-477): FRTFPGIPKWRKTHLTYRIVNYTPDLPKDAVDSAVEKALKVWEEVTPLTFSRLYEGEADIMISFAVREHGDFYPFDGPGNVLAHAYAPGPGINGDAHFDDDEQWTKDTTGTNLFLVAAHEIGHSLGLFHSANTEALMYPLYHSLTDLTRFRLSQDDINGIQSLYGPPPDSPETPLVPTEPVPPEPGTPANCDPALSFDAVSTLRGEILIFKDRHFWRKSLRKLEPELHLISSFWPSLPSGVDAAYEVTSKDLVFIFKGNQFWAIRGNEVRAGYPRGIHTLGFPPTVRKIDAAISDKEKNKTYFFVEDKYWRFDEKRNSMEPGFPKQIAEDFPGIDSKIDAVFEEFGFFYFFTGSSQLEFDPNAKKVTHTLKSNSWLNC

With O=C(N[C@@H](Cc1ccc(OCc2ccccc2)cc1)C(=O)N[C@H](C(=O)Nc1n[nH]c(=S)s1)c1ccccc1)OCc1ccccc1 the inhibition at 25 µM ([1]; 25 μM compound) was 20% and the Ki [2] was 39 nM and 64 nM.

In the case of CC(C)C[C@H](NC(=O)[C@H](Cc1ccccc1)NC(=O)OCc1ccccc1)C(=O)Nc1n[nH]c(=S)s1 [5-(N-benzyloxycarbonyl-phenylalanyl-leucylamino)-1,3,4-thiadiazole-2-thione], the inhibition at 50 µM ([1]; 50 μM compound) is reported as 33% and the Ki [2] is reported as 169 nM.

With CC(C)[C@H](NC(=O)[C@H](Cc1ccccc1)NC(=O)OCc1ccccc1)C(=O)Nc1n[nH]c(=S)s1 [5-(N-benzyloxycarbonyl-phenylalanyl-valylamino)-1,3,4-thiadiazole-2-thione] the inhibition at 10 µM ([1]; 10 μM compound) was 40% and the Ki [2] was 279 nM.
